# In US20040087539A1, “Method of treating conditions related to platelet activity” (priority 2003, published 2004):
# Experiments:
# [1] = tested on: CHO cells expressing human platelet receptors; experiment: Cell adhesion to immobilized vWF under flow; type: cell-based, Chinese Hamster; conditions: FIG. 2C; sildenafil 5 μM, RGDS 4 mM; 8-bromo-cGMP not shown
# Experimental: CHO cells expressing human platelet receptors were resuspended in modified Tyrode's buffer, pH 7.4, containing 1 mg/mi of bovine serum albumin (BSA) (see Ref. 46), and final cell count was 5×10^5/ml. […] Purified human vWF (10 μg/ml in 0.1 M NaHCO3, pH 8.3) was added to glass microcapillary tubes (inner diameter of 1.33 mm and a length of 7.2 cm), and incubated at 4° C. for 20 h. The vWF-coated microcapillary tubes then were incubated with 5% BSA. After washing, the cell suspension was aspirated through the tube by a syringe pump (Harvard Apparatus Inc.) at desired shear rates for 1.2 minutes and washed with modified Tyrode's buffer for additional 10 minutes at the same shear rates to remove transiently adherent cells. The experiments were continuously recorded on videotape using a video cassette recorder (model 9500, Sony). The number of stably adherent cell on immobilized vWF was counted on images obtained at 20 randomly selected positions in the vWF-coated tubes.
# In FIGS. 2A and B, vWF-coated capillary tubes were perfused with equivalent numbers (5×10^5/ml) of CHO cells expressing recombinant GPLb-JX alone (1b9), integrin αIIbβ3 alone (2b3a), both GPIb-IX and integrin αIIbβ3 (123) or expressing GPJb-JX, integrin α^IIbβ3 and PKG Ia (123PKG) at a shear rates of 800 s^−1 (A) or 1500 s^−1 (B) for 1.2 minutes, and then perfused with the modified Tyrodes buffer for 10 minutes at the same shear rates to wash out transient adherent cells. The expenments were recorded in real time. Cells stably adherent to vWF-coated capillary tubes at 20 randomly selected locations were counted.
# In FIG. 2C, vector-transfected 123 cells (123) or 123PKG cells also was perfused into vWF-coated glass capillary tubes as described in FIG. 2A in the absence or presence (+RGDS) of an integrin inhibitor RGDS peptide (4 mM) and in the absence (Control) or presence of cGMP-enhancing drug, sildenafil (5 μM). […] The experiments were repeated at least three times.
# [2] = tested on: platelets; experiment: Ristocetin-induced vWF-dependent platelet aggregation in platelet-rich plasma; type: cell-based, human
# Experimental: Fresh blood from healthy volunteers was anticoagulated with 1/7 volume of ACD (2.5% trisodium citrate, 2% dextrose and 1.5% citric acid). Platelets were washed with CGS buffer (sodium chloride 0.12 M, trisodium citrate 0.0129 M and d-glucose 0.03 M, pH 6.5), resuspended in modified Tyrode's solution and allowed to incubate at 22° C. for 1 hours as previously described. In experiments using platelet-rich plasma (PRP), 1/10 volume of 3.8% trisodium citrate was used as anticoagulant. Platelet aggregation was measured using a turbidometric platelet aggregometer (Chrono-Log) at 37° C. vWF-dependent platelet aggregation was induced by addition of ristocetin or botrocetin to PRP. To differentiate CPIb-IX-mediated platelet agglutination from the second wave of integrin-dependent platelet aggregation, final concentrations of ristocetin were adjusted in each experiment to achieve a two-wave curve of aggregation. Washed platelets were used in platelet aggregation induced by a-thrombin (Enzyme Research Laboratories). To examine the effects of PKG, 100 μM of membrane permeable cGMP analogs, 8-bromo-cGMP or 8-dibutyl-cGMP (Calbiochem), or 1 μM sildenafil citrate (Pfizer) and added simultaneously with subthreshold concentrations of agonists. PKG inhibitors KT5823 (2 pM) and Rp-8PCPT-cGMP (0.2 mM) were preincubated with platelets at 37° C. for 5 minutes before addition of agonists.
# In FIG. 3A, platelet rich-plasma (PRP) was preincubated at 37° C. for 5 mm with PKG inhibitors KT5823 (2 pM) or Rp-8pCPT-cGMP (0.2 μM). PRP was also incubated with DMSO (vehicle for KT5823), a PKA inhibitor, KT5720 (2 pM), or buffer (Control). The vWF modulator, ristocetin, was then added to induce vWF-GPIb-IX interaction. […] In FIG. 3B, a subthreshold concentration of ristocetin was added to PRP immediately followed by addition of 8-bromo-cGMP or buffer (Control). PRP also was preincubated with integrin inhibitor RGDS before adding ristocetin and 8-bromo-cGMP. In FIG. 3C, platelets were preincubated with or without PKG inhibitor KT5823, then allowed to spread on vWF-coated glass chamber slides. Platelets were stained with an anti-GPIb antibody, and fluorescein-labeled secondary antibody. The slides were imaged under a confocal microscope (magnification =630×).
# In FIG. 6A, increasing concentrations of sildenafil or control 0.15 M NaCl solution were added to platelet-rich plasma followed by a subthreshold concentration of ristocetin. Platelet aggregation was recorded using a platelet aggregometer. In FIG. 6B, sildenafil or control buffer was added to washed platelets followed by addition of subthreshold doses of thrombin to induce platelet aggregation. It was noted that platelet aggregation occurs in the presence of sildenafil. The figure includes the representative results of at least three experiments.
# In FIG. 7A, PRP was preincubated with 0.1 mM 8-bromo-cGMP for increasing lengths of time at 37° C. as indicated. The vWF modulator, ristocetin (1.25 mg/ml), then was added to induce platelet aggregation in a turbidometric platelet aggregometer. In FIG. 7B, PRP was preincubated with a high concentration of 8-bromo-cGMP (1 mM) for 5 minutes. Ristocetin then was added to induce platelet aggregation. In FIGS. 7C and 7D, washed platelets in modified Tyrode's solution were preincubated with 1 mM 8-bromo-cGMP (C), or various concentrations of 8-pCPT-cGMP (D) at 37° C. for 5 minutes. Thrombin (0.05 u/ml) then was added to induce platelet aggregation.
smiles,measurement,setting,value
Nc1nc2c(nc(Br)n2[C@@H]2O[C@@H]3COP(=O)(O)O[C@H]3[C@H]2O)c(=O)[nH]1 [8-bromo-cGMP],stable adhesion of PKG-expressing 123 cells (123PKG) to vWF under flow,[1],enhanced
same,preincubation time required to inhibit platelets,"[2]; 1 mM 8-bromo-cGMP, FIGS. 7B, 7C",less than 5 minutes
same,preincubation time after which the inhibitory effect on platelet aggregation becomes significant,"[2]; 8-bromo-cGMP 100 μM (0.1 mM), PRP, 37° C., ristocetin 1.25 mg/ml, FIG. 7A",10 min
same,"GPIb-IX-dependent platelet activation, agent added simultaneously with ristocetin","[2]; 8-bromo-cGMP 100 μM, FIG. 7A",promoted
same,platelet aggregation together with a subthreshold concentration of ristocetin,"[2]; PRP, agent added with subthreshold ristocetin (1 mg/mm [sic]) (or botrocetin), FIGS. 3B, 6A",induced integrin-dependent platelet aggregation
same,preincubation time required for a slight inhibitory effect,"[2]; in some experiments, not shown",30 min
